According to patent US20100010024A1, “USE OF1,4-DIARYL-DIHYDROPYRIMIDINE-2-ON DERIVATIVES FOR TREATING PULMONARY ARTERIAL HYPERTENSION” (Bayer Healthcare AG, priority 2006, published 2010):
pIC50: −log10 of the molar value.

target: T1, human neutrophil elastase (HNE) (Homo sapiens, UniProt P08246); test: In vitro HNE inhibition assay; format: biochemical; conditions: 80 pM HNE, 20 μM MeOSuc-Ala-Ala-Pro-Val-AMC, 37° C., 2 hours, fluorescence
T1 construct: purchased Serva, Heidelberg
T1 sequence (P08246 30-267): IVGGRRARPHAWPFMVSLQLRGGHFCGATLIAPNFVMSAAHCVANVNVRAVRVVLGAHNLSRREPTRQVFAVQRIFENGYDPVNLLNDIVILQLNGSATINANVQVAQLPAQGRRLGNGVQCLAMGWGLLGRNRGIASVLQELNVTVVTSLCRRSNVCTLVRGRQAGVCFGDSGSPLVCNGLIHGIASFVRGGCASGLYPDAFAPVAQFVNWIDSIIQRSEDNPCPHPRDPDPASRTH
Protocol: B-1. In vitro HNE Inhibition Assay
The potency of the compounds of the invention is ascertained in an in vitro inhibition assay. The HNE-mediated amidolytic cleavage of a suitable peptide substrate leads in this connection to an increase in the fluorescent light. The signal intensity of the fluorescent light is directly proportional to the enzyme activity.
Enzyme (80 pM HNE; from Serva, Heidelberg) and substrate (20 μM MeOSuc-Ala-Ala-Pro-Val-AMC; from Bachem, Weil am Rhein) are incubated in an assay volume of in total 50 μl of assay buffer (0.1 M HEPES pH 7.4, 0.5 M NaCl, 0.1% w/v BSA, 1% v/v DMSO) in a 384-well microtiter plate in the presence and absence of the test substance at 37° C. for 2 hours. […] The IC50 values are determined by plotting the intensity of the fluorescent light against the active substance concentration.

pIC50	SMILES
7.83	CC1=C(C(=O)C2CCC2)[C@@H](c2ccc(C#N)cc2)NC(=O)N1c1cccc(C(F)(F)F)c1 [Example 3, 4-{(4R)-5-(Cyclobutylcarbonyl)-6-methyl-2-oxo-1-[3-(trifluoromethyl)phenyl]-1,2,3,4-tetrahydropyrimidin-4-yl}benzonitrile]
8.28	CC(=O)C1=C(C)N(c2ccc(F)c(C(F)(F)F)c2)C(=O)N[C@@H]1c1ccc(C#N)cc1 [Example 7, 4-{(4R)-5-Acetyl-1-[4-fluoro-3-(trifluoromethyl)phenyl]-6-methyl-2-oxo-1,2,3,4-tetrahydropyrimidin-4-yl}benzonitrile]
8.37	CC1=C(C(=O)C2CCC2)[C@@H](c2ccc(C#N)cc2)N(CC(=O)O)C(=O)N1c1cccc(C(F)(F)F)c1 [Example 8, [(6R)-6-(4-Cyanophenyl)-5-(cyclobutylcarbonyl)-4-methyl-2-oxo-3-[3-(trifluoromethyl)phenyl]-3,6-dihydropyrimidin-1(2H)-yl]acetic acid]
8.54	CC1=C(C(=O)C(C)C)[C@@H](c2ccc(C#N)cc2)N(CC(=O)O)C(=O)N1c1cccc(C(F)(F)F)c1 [Example 16, [(6R)-6-(4-Cyanophenyl)-5-isobutyryl-4-methyl-2-oxo-3-[3-(trifluoromethyl)phenyl]-3,6-dihydropyrimidin-1(2H)-yl]acetic acid]
8.41	CC(=O)C1=C(C)N(c2cccc(C(F)(F)F)c2)C(=O)N(Cc2cccc(C(=O)O)c2)[C@@H]1c1ccc(C#N)cc1 [Example 17, 3-{[(6R)-5-Acetyl-6-(4-cyanophenyl)-4-methyl-2-oxo-3-[3-(trifluoromethyl)phenyl]-3,6-dihydropyrimidin-1(2H)-yl]methyl}benzoic acid]
8.54	CC(=O)C1=C(C)N(c2cccc(C(F)(F)F)c2)C(=O)N(Cc2ccc(C(=O)O)cc2)[C@@H]1c1ccc(C#N)cc1 [Example 18, 4-{[(6R)-5-Acetyl-6-(4-cyanophenyl)-4-methyl-2-oxo-3-[3-(trifluoromethyl)phenyl]-3,6-dihydropyrimidin-1(2H)-yl]methyl}benzoic acid]
8.26	CC(=O)C1=C(C)N(c2cccc(C(F)(F)F)c2)C(=O)N(CC(N)=O)[C@@H]1c1ccc(C#N)cc1 [Example 21, 2-[(6R)-5-Acetyl-6-(4-cyanophenyl)-4-methyl-2-oxo-3-[3-(trifluoromethyl)phenyl]-3,6-dihydropyrimidine-1(2H)-yl]acetamide]
8.85	CC1=C(C(=O)OCCO)[C@@H](c2ccc(C#N)cc2)N(CC(N)=O)C(=O)N1c1cccc(C(F)(F)F)c1 [Example 29]
9.40	CCOC(=O)C1=C(C)N(c2cccc(C(F)(F)F)c2)C(=O)N(CC(=O)N(C)C)[C@@H]1c1ccc(C#N)cc1 [Example 30, Ethyl(4R)-4-(4-cyanophenyl)-3-[2-(dimethylamino)-2-oxoethyl]-6-methyl-2-oxo-1-[3-(trifluoromethyl)phenyl]-1,2,3,4-tetrahydropyrimidine-5-carboxylate]
